From ChEMBL document CHEMBL2331547, “o-Benzenedisulfonimido-sulfonamides are potent inhibitors of the tumor-associated carbonic anhydrase isoforms CA IX and CA XII” (Bioorg Med Chem, 2013)

Target: Carbonic anhydrase 9 (Homo sapiens, UniProt Q16790)
Assay: Inhibition of human recombinant carbonic anhydrase-9-mediated CO2 hydration preincubated for 10 mins by stopped-flow assay

Compound | Ki [nM]
NS(=O)(=O)c1ccc(CCN2S(=O)(=O)c3ccccc3S2(=O)=O)cc1 | 86
NS(=O)(=O)c1ccc(N2S(=O)(=O)c3ccccc3S2(=O)=O)c(Cl)c1 | 17.1
NS(=O)(=O)c1cccc(N2S(=O)(=O)c3ccccc3S2(=O)=O)c1 | 32.2
NS(=O)(=O)c1ccccc1N1S(=O)(=O)c2ccccc2S1(=O)=O | 66.9

Other lines, results leading:

Ki [nM] | Compound
49.8 | NS(=O)(=O)c1ccc(CN2S(=O)(=O)c3ccccc3S2(=O)=O)cc1
82.5 | NS(=O)(=O)c1ccc(N2S(=O)(=O)c3ccccc3S2(=O)=O)cc1
